Test results published in patent US8846367B2, “Coryneform bacterium transformant and process for producing phenol using the same” (Green Phenol Development Co., Ltd., priority 2010, dated 2014).
Where two headings read alike, the source gives them in different places.

How the values were obtained:
[1] = tested on: Corynebacterium glutamicum R; conditions: aerobic culture, A liquid medium, 33° C.
Experimental: (§1) A growth inhibition test in aerobic culture was performed to examine the influence of phenol on Corynebacterium glutamicum, Escherichia coli, and Pseudomonas putida. Pseudomonas putida S12, which was used for the test, is reported to be a solvent-resistant strain. In the report, disclosed is an unparalleled technology using the strain as a host in phenol production.
Corynebacterium glutamicum R was applied to A agar medium (2 g of (NH2)2CO, 7 g of (NH4)2SO4, 0.5 g of KH2PO4, 0.5 g of K2HPO4, 0.5 g of MgSO4.7H2O, 1 mL of 0.06% (w/v) Fe2SO4.7H2O+0.042% (w/v) MnSO4.2H2O, 1 mL of 0.02% (w/v) biotin solution, 2 mL of 0.01% (w/v) thiamin solution, 2 g of yeast extract, 7 g of vitamin assay casamino acid, 40 g of glucose, and 15 g of agar were suspended in 1 L of distilled water) and was left stand in the dark at 33° C. for 15 hours.
An inoculation loop of the Corynebacterium glutamicum R grown on a plate as above was inoculated into a test tube containing 10 mL of A liquid medium (2 g of (NH2)2CO, 7 g of (NH4)2SO4, 0.5 g of KH2PO4, 0.5 g of K2HPO4, 0.5 g of MgSO4.7H2O, 1 mL of 0.06% (w/v) Fe2SO4.7H2O+0.042% (w/v) MnSO4.2H2O, 1 mL of 0.02% (w/v) biotin solution, 2 mL of 0.01% (w/v) thiamin solution, 2 g of yeast extract, 7 g of vitamin assay casamino acid, and 40 g of glucose were suspended in 1 L of distilled water) and was aerobically cultured with shaking at 33° C. for 13 hours.
(§2) The Corynebacterium glutamicum R grown in the above conditions was inoculated into 100 mL of A liquid medium in such a way that the initial bacterial cell concentration would be OD610=0.05, phenol was added at the same time in such a way that the final concentration would be 0, 0.16, 0.2, 0.24, or 0.32 mM, and aerobic culture was performed with shaking at 33° C. The growth of bacterial cells was determined by absorbance measurement at OD610.

[2] = tested on: Pseudomonas putida F1; conditions: aerobic culture, LB (+glucose) liquid medium, 30° C.
Experimental: as §1
(§3) Pseudomonas putida F1 and S12 were applied to LB agar medium (1% polypeptone, 0.5% yeast extract, 0.5% NaCl and 1.5% agar) and were left stand in the dark at 30° C. for 15 hours.
(§4) An inoculation loop of each of the Pseudomonas putida F1 and S12 grown on a plate as above was inoculated into a test tube containing 10 mL of LB (+glucose) liquid medium (1% polypeptone, 0.5% yeast extract, 0.5% NaCl and 0.4% glucose), and aerobic culture was performed with shaking at 30° C. for 13 hours.
as §2, with “The Pseudomonas putida F1 and S12” for “The Corynebacterium glutamicum R”, “conditions were each” for “conditions was”, “of LB (+glucose)” for “of A”, “0, 0.10,” for “0, 0.16, 0.2, 0.24,”, “or 0.20” for “or 0.32”, “at 30°” for “at 33°”

[3] = tested on: Pseudomonas putida S12; conditions: aerobic culture, LB (+glucose) liquid medium, 30° C.
Experimental: as §1, §3, §4
as §2, with “The Pseudomonas putida F1 and S12” for “The Corynebacterium glutamicum R”, “conditions were each” for “conditions was”, “of LB (+glucose)” for “of A”, “0, 0.10,” for “0, 0.16, 0.2, 0.24,”, “or 0.20” for “or 0.32”, “at 30°” for “at 33°”

[4] = tested on: Escherichia coli JM109; conditions: aerobic culture, LB liquid medium, 37° C.
Experimental: as §1
Escherichia coli JM109 was applied to LB agar medium (1% polypeptone, 0.5% yeast extract, 0.5% NaCl and 1.5% agar) and was left stand in the dark at 37° C. for 15 hours.
An inoculation loop of the Escherichia coli JM109 grown on a plate as above was inoculated into a test tube containing 10 mL of LB liquid medium (1% polypeptone, 0.5% yeast extract, and 0.5% NaCl), and aerobic culture was performed with shaking at 37° C. for 13 hours.
as §2, with “Escherichia coli JM109” for “Corynebacterium glutamicum R”, “LB” for “A”, “0.16,” for “0.16, 0.2, 0.24,”, “0.20” for “0.32”, “37°” for “33°”

## Oc1ccccc1 [phenol]
[1]; 0.16% phenol
  proliferation of Corynebacterium glutamicum (OD610): hardly affected
[1]; 0.20% phenol
  proliferation of Corynebacterium glutamicum (OD610): favorable growth
[1]; 0.24% phenol
  proliferation of Corynebacterium glutamicum (OD610): able to proliferate
[2]; 0.10% phenol
  proliferation of Pseudomonas putida F1 (OD610): significantly affected
[2]; 0.20% phenol
  proliferation of Pseudomonas putida F1 (OD610): completely inhibited
[3]; 0.10% phenol
  proliferation of Pseudomonas putida S12 (OD610): significantly affected
[3]; 0.20% phenol
  proliferation of Pseudomonas putida S12 (OD610): completely inhibited
[4]; 0.16% phenol
  proliferation of Escherichia coli (OD610): significantly affected
[4]; 0.20% phenol
  proliferation of Escherichia coli (OD610): completely inhibited
